This is an account of results in patent US20260209250A1, “CRYSTAL FORM OF KRAS G12D INHIBITOR AND PREPARATION METHOD THEREFOR” (priority 2022, published 2026).

Holding throughout (assay type): cell-based
For assay [1], the system named is ERK phosphorylation in AGS cells. The experiment in a line: Inhibition of ERK phosphorylation in AGS cells (HTRF method). The conditions noted are these: Homo sapiens, 1 h incubation, phosphorylated ERK/total ERK ratio. As for the experimental part:
In the experiment, the inhibitory effect of the compound on the KRAS target was evaluated by assessing the inhibitory effect of compound 1-p1 on ERK phosphorylation in cells and based on the IC50 value.
AGS cells (Nanjing Cobioer, CBP60476) were cultured in an RPMI1640 (Hyclone, SH30809.01) complete culture medium containing 10% fetal bovine serum. On the first day of the experiment, the AGS cells were seeded into a 96-well plate with a complete culture medium at a density of 40000 cells/well, with each well containing 190 μL of a cell suspension. The plate was incubated overnight in a 5% CO2 cell incubator at 37° C.
The next day, the test compound, serially diluted in a complete culture medium, was added at 10 μL/well. The final concentrations of the compound were 9 concentration points obtained by 5-fold serial dilution from 10 μM. A blank control containing 0.5% DMSO was set. The plate was incubated in a 5% CO2 cell incubator at 37° C. for 1 h. […]
On the third day, the fluorescence values at an excitation wavelength of 337 nm and emission wavelengths of 665 nm and 620 nm were obtained using an ENVISION multi-mode microplate reader (PerkinElmer, ENVISION).
The IC50 value for the inhibitory activity of the compound was calculated using Graphpad Prism software based on the compound concentration and the phosphorylated ERK/total ERK ratio.

Another assay concerns AGS cells. Description: Inhibition of 3D proliferation of AGS cells. The conditions noted are these: Homo sapiens, 120 h, CellTiter-Glo 3D. As for the experimental part:
(§1) The inhibitory effect of compound 1-p1 on the KRAS target was evaluated by assessing the inhibitory effect of compound 1-p1 on the 3D proliferation of GP2d and AGS cells.
AGS cells (Nanjing Cobioer, CBP60476) were cultured in a complete culture medium, namely an RPMI1640 culture medium (Hyclone, SH30809.01) containing 10% fetal bovine serum (Corning, 35-076-CV). On the first day of the experiment, the AGS cells were seeded into a 96-well low-adsorption plate (Corning, CLS7007-24EA) with a complete culture medium at a density of 1000 cells/well, with each well containing 90 μL of a cell suspension. The plate was centrifuged at 2000 rpm for 5 min at room temperature and then incubated overnight in a 5% CO2 cell incubator at 37° C.
(§2) The next day, the test compound, serially diluted in a complete culture medium, was added at 10 μL/well. The final concentrations of the compound for GP2d cells were 9 concentration points obtained by 3-fold serial dilution from 1 μM, and the final concentrations of the compound for AGS cells were 9 concentration points obtained by 3-fold serial dilution from 10 μM. A blank control containing 0.5% DMSO was set for both types of cells. […] The luminescence signal values were obtained using a multi-mode microplate reader (PerkinElmer, ENVISION).
(§3) The IC50 values for the inhibitory activity of the compound were calculated using Graphpad Prism software.

In a further assay the test system is GP2d cells. Description: Inhibition of 3D proliferation of GP2d cells. The conditions noted are these: 120 h, CellTiter-Glo 3D. The procedure: as §1
GP2d cells (Nanjing Cobioer, CBP60010) were cultured in a complete culture medium, namely a DMEM/high glucose culture medium (Hyclone, SH30243.01) containing 10% fetal bovine serum (Corning, 35-076-CV). On the first day of the experiment, the GP2d cells were seeded into a 96-well low-adsorption plate (Corning, CLS7007-24EA) with a complete culture medium at a density of 1000 cells/well, with each well containing 90 μL of a cell suspension. The plate was centrifuged at 2000 rpm for 5 min at room temperature and then incubated overnight in a 5% CO2 cell incubator at 37° C.
as §2, §3

In general, IC50 refers to the concentration at which inhibition is half-maximal. On to `CCc1c(F)ccc2cc(O)cc(-c3nc4c5c(nc(OC[C@@]67CCCN6C[C@H](F)C7)nc5c3F)N3C[C@H]5CC[C@H](N5)[C@H]3CO4)c12` [Compound 1-p1, 5-Ethyl-6-fluoro-4-((5aS,6S,9R)-1-fluoro-12-(((2R,7aS)-2-fluorotetrahydro-1H-pyrrolizin-7a(5H)-yl)methoxy)-5a,6,7,8,9,10-hexahydro-5H-4-oxa-3,10a,11,13,14-pentaaza-6,9-methanonaphtho[1,8-ab]heptalen-2-yl)naphthalen-2-ol], for which the IC50 in assay [1] amounted to 0.4 nM; in the assay with AGS cells, 5.8 nM; with GP2d cells, 0.9 nM.
